The values that follow come from paper PMC11277004, “Di- and Triselenoesters—Promising Drug Candidates for the Future Therapy of Triple-Negative Breast Cancer” (International Journal of Molecular Sciences, 2024).

Read-outs that look alike come from different tables or passages of the source.

Assay [1] has as its system MDA-MB-231 triple-negative breast cancer cells. The assay is described as follows: MTT cytotoxicity test, MDA-MB-231. The assay is classed as cell-based, human. Conditions: MDA-MB-231, 24 h incubation, read-out: IC50, cell viability (MTT). As for the experimental part:
(§1) MCF-7 and MDA-MB-231 human breast cancer cell lines, as well as MCF-10A normal human breast epithelial cells, were acquired from the American Type Culture Collection (ATCC, Manassas, VA, USA). The characteristics of the breast cancer cell lines used in this study are compared in Table 1. MCF-7 and MDA-MB-231 cells were cultured in Dulbecco’s modified Eagle’s medium (Gibco, San Diego, CA, USA), while MCF-10A cells were cultured in the mammary epithelial cell growth medium with the following supplements: BPE, hEGF, insulin, hydrocortisone, GA-1000 (Lonza, Basel, Switzerland). All media were complemented by 10% of fetal bovine serum (FBS) and 1% of the following antibiotics: penicillin and streptomycin (both Gibco, San Diego, CA, USA). The cells were maintained in an incubator that provides the optimal growth conditions for the cell culture: 5% CO2, 37 °C, and humidity in a range of 90–95%. The cells were cultured in 100 mm plates (Sarstedt, Newton, NC, USA). Subsequently, after obtaining a subconfluent cell culture, the cells were detached with 0.05% trypsin with 0.02% EDTA (Gibco, San Diego, CA, USA). […] In this study, cells that obtained 80% confluence were used. The MTT assay was used to determine the cytotoxic effects of the compounds in the study on MCF-7 and MDA-MB-231 breast cancer cells as well as MCF-10A normal human breast epithelial cells based on Carmichael’s method. […] After this time, the medium was removed, and the cell monolayer was washed with warm phosphate-buffered saline (PBS) without calcium and magnesium. In the next step, PBS and MTT solution in PBS (5 mg/mL) were added to each well to obtain a final MTT concentration of 0.5 mg/mL, and then the cells were incubated for 4 h (37 °C temperature, 5% CO2, 90–95% humidity). After the incubation period, the contents of each well were removed, 1 mL of DMSO was added to dissolve the formazan, and then the plate with the added DMSO was mixed for 5–10 min on a microplate shaker (Boeco, Hamburg, Germany). Then, 10 µL of Sorensen’s glycine buffer (a solution of 0.1 M glycine and 0.1 M sodium chloride adjusted to pH 10.5 with 0.1 M sodium hydroxide) was added. The absorbance of the obtained solution was immediately measured at a wavelength of λ = 570 nm using a Thermo Scientific Evolution 201 UV–VIS spectrophotometer (Thermo Fisher Scientific, Waltham, MA, USA). The absorbance result obtained in the control cells (without the addition of the tested compounds) was taken as 100%, while the viability of cells incubated with the tested compounds was presented as a percentage of the control value.
For orientation: Formazan colour is commonly taken as a measure of viable cells.

Assay [2] deals with MCF-10A normal human breast epithelial cells. The assay is described as follows: MTT cytotoxicity test, MCF-10A. The assay is classed as cell-based. Conditions: 24 h incubation, read-out: IC50, cell viability (MTT). As for the experimental part: as §1
Assay [3] concerns MDA-MB-231 breast cancer cells. Put plainly: Mitochondrial membrane potential (JC-1, flow cytometry), MDA-MB-231. Conditions: 24 h. The assay is classed as cell-based, human. As for the experimental part:
The entire cell staining and cytometric analysis procedures were performed according to the instructions provided with the kit. In the first step, the cells (1 × 10^6 cells/sample) were washed and resuspended in 0.5 mL of buffer containing 10 µg/mL JC-1 dye. Incubation was carried out for 15 min at room temperature, protected from light. Afterward, the cells were washed twice with buffer, resuspended in 0.5 mL PBS, and immediately analyzed using a flow cytometer (BD FACSCanto II; 10,000 events measured) and the FACSDiva 6.0 software (BD Biosciences Systems, San Jose, CA, USA) to count the percentage of cells with reduced ΔΨm. The equipment was calibrated with the BD Cytometer Setup and Tracking Beads (BD Biosciences, San Diego, CA, USA).
(Flow cytometry measures light scatter and fluorescence of single cells or particles in a stream.)

Another assay concerns Bax. Put plainly: Bax protein level by flow cytometry, MCF-7. The assay is classed as cell-based, human. Conditions: 24 h. As for the experimental part: For this purpose, Akt (PE), Bax (FITC), Bcl-2 (Alexa Fluor® 647), LC3A/B (Alexa Fluor® 488), and p53 (Alexa Fluor® 488) antibodies conjugated to different fluorochromes (all from Cell Signaling Technology, Beverly, MA, USA) were utilized. Each assay was performed according to the manufacturer's protocol available on their website. After incubation with the tested compounds, the cells were centrifuged, resuspended in 4% formaldehyde (100 μL/1 × 10^6 cells), and fixed for 15 min at room temperature. Afterward, to remove the formaldehyde, the cells were washed by centrifugation with excess PBS and the permeabilization step was triggered. For this purpose, ice-cold 90% methanol was added to the pre-chilled cell pellet, gently vortexed, and incubated for 1 h on ice. Later, the cells were washed by centrifugation with excess PBS again, resuspended in 100 μL of 1:100 diluted primary antibody (stain buffer was used for dilution), and incubated for 1 h at room temperature in the dark. After incubation, the cells were washed, resuspended in 300 μL PBS, and immediately tested with a flow cytometer (BD FACSCanto II, BD Biosciences Systems, San Jose, CA, USA; 10,000 events measured). The obtained results were analyzed using the FACSDiva 6.0 software (BD Biosciences Systems, San Jose, CA, USA). In the case of the p53 protein, the MRF values were obtained first during the flow cytometer readout utilizing FACSDiva software and later analyzed using FCS Express 7 (De Novo Software, Pasadena, CA, USA). The equipment calibration was performed using the BD Cytometer Setup and Tracking Beads (BD Biosciences, San Diego, CA, USA).

The next assay relates to caspase 9. Put plainly: Caspase 9 activity (FAM-FLICA, flow cytometry), MDA-MB-231. Conditions: 24 h. The assay is classed as cell-based, human. The method, then: The FAM-FLICA® Caspase Assay kits (all from ImmunoChemistry Technologies, Bloomington, MN, USA) and flow cytometer (BD FACSCanto II, BD Biosciences Systems, San Jose, CA, USA) were used to evaluate the activity of caspase 3/7, 8, and 9. MCF-7 and MDA-MB-231 cells were treated with selenoesters under the study (EDAG-1 and EDAG-8) and a reference agent (cisplatin) at two different concentrations (0.5 and 1 µM; treatment duration: 24 h). Following this, cells were collected, washed twice with cold PBS, and resuspended in an Apoptosis Wash Buffer to a final concentration of 5 × 10^5 cells/mL. In the next step, 290 µL each of cell suspension was taken and transferred into tubes. Then 10 µL of FLICA solution diluted immediately before use (1:5 v/v, using PBS) was added to the cells, mixed by pipetting, and incubated in the dark for 1 h at 37 °C. After this time, the cells were washed twice with 2 mL Apoptosis Wash Buffer, centrifuged, and resuspended in 300 µL of the buffer. Thus, prepared samples were immediately analyzed using a BD FACSCanto II flow cytometer (10,000 events) with the FACSDiva 6.0 software (both from BD Biosciences Systems, San Jose, CA, USA). The equipment calibration was carried out using the BD Cytometer Setup and Tracking Beads (BD Biosciences, San Diego, CA, USA).

The IC50 is the concentration needed to halve the response being measured. `N.N.[Cl][Pt][Cl]` [Cisplatin, reference compound]: the IC50 in assay [1] and in assay [2] was more than 5000 nM each time. In addition, the “Decreased ΔΨm ± SD (cells)” value is given as 11.2 ± 0.9% in assay [3] (MDA-MB-231, 0.5 μM) and 12.9 ± 0.2% in assay [3] (MDA-MB-231, 1 μM). The “Bax positive cells ± SD” value in the assay on Bax (MCF-7, 0.5 μM) stood at 2.9 ± 0.9%; with Bax (MCF-7, 1 μM) it was 3.0 ± 0.8%. Also, the “Active caspase 9 ± SD (cells)” value in the assay on caspase 9 (MDA-MB-231, 0.5 μM) was found to be 2.7 ± 0.1%; in the assay with caspase 9 (MDA-MB-231, 1 μM) it was 2.8 ± 0.3%.
With `CC(=O)C[Se]C(=O)c1ccc(C(=O)[Se]CC(C)=O)cc1` [EDAG-1, Se,Se-bis(2-oxopropyl) benzene-1,4-bis(carboselenoate)], the IC50 amounted to 710 ± 60 nM in assay [1] (Homo sapiens) and 410 ± 30 nM in assay [2] (Homo sapiens). Besides, the “Decreased ΔΨm ± SD (cells)” value in assay [3] (MDA-MB-231, 0.5 μM) was 29.2 ± 2.2%; in assay [3] (MDA-MB-231, 1 μM), 72.1 ± 0.9%. Moreover, the “Bax positive cells ± SD” value worked out at 6.1 ± 0.9% in the assay on Bax (MCF-7, 0.5 μM) and 8.6 ± 1.0% in the assay on Bax (MCF-7, 1 μM). Moreover, the “Active caspase 9 ± SD (cells)” value in the assay with caspase 9 (MDA-MB-231, 0.5 μM) was 5.2 ± 0.7%; in the assay on caspase 9 (MDA-MB-231, 1 μM), 8.5 ± 0.6%.
Turning to `CC(=O)C[Se]C(=O)c1cc(C(=O)[Se]CC(C)=O)cc(C(=O)[Se]CC(C)=O)c1` [EDAG-8, Se,Se,Se-tris-(2-oxopropyl) benzene-1,3,5-tris-(carboxyselenoate)], the figures for the IC50 in assay [1] (Homo sapiens) and in assay [2] (Homo sapiens) were 530 ± 30 nM and 510 ± 20 nM, respectively. Further, the “Decreased ΔΨm ± SD (cells)” value in assay [3] (MDA-MB-231, 0.5 μM) is 55.0 ± 3.0%; in assay [3] (MDA-MB-231, 1 μM), 92.5 ± 0.7%. The “Bax positive cells ± SD” value was found to be 18.0 ± 1.5% in the assay with Bax (MCF-7, 0.5 μM) and 32.1 ± 3.1% with Bax (MCF-7, 1 μM). Also, the “Active caspase 9 ± SD (cells)” value was 8.4 ± 0.9% with caspase 9 (MDA-MB-231, 0.5 μM) and 32.5 ± 3.8% with caspase 9 (MDA-MB-231, 1 μM).
